Measured values taken from patent publication US20250179073A1, “TRICYCLIC HETEROCYCLE COMPOUNDS AS IAP ANTAGONISTS” (Ascentage Pharma (Suzhou) Co., Ltd., priority 2022, published 2025).

Assays:
[1] = system: MDA-MB-231 cells; assay: Cell proliferation assay (CellTiter-Glo), MDA-MB-231; assay type: cell-based; conditions: Homo sapiens, MDA-MB-231, 72 h, 72 h treatment, Celltiter-Glo luminescence
Summary of the method: (§1)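 MDA-MB-231 (RPMI-1640/10% FBS) and EVSA-T (MEM/10% FBS) cells, 10000 cells/well, exposed 72 h to compound at […]. Viability read by CellTiter-Glo luminescence after 15 min at room temperature. IC50 from control-normalised curve fitting.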

[2] = system: EVSA-T cells; assay: Cell proliferation assay (CellTiter-Glo), EVSA-T; assay type: cell-based; conditions: Homo sapiens, EVSA-T, 72 h, 72 h treatment, Celltiter-Glo luminescence
Summary of the method: as §1

SMILES | IC50 [1] | IC50 [2]
C[C@@H]1CN(CC(=O)N2CC(C)(C)c3c2cc(Cc2ccc(F)cc2)c2nn(C[C@H]4COCCO4)c(=O)n32)[C@@H](CN2CCOC[C@H]2C)CN1 [Compound 237, 2-(((S)-1,4-dioxan-2-yl)methyl)-4-(4-fluorobenzyl)-8,8-dim ethyl-6-(2-((2R,5R)-5-methyl-2-(((R)-3-methylmorpholino)methyl)piperazin-1-yl)acetyl)-2,6,7,8-tetrahydro-1H-pyrrolo[2,3-e][1,2,4]triazolo[4,3-a]pyridin-1-one] | 46 nM | 1.5 nM
CC(=O)N(C)c1nc2c(Cc3ccc(F)cc3)cc3c(n2n1)C(C)(C)CN3C(=O)CN1C[C@@H](C)NC[C@@H]1CN1CCOC[C@H]1C [Compound 238, N-(4-(4-fluorobenzyl)-8,8-dimethyl-6-(2-((2R,5R)-5-methy 1-2-(((R)-3-methylmorpholino)methyl)piperazin-1-yl)acetyl)-7,8-dihydro-6H-pyrrolo[2,3-e][1,2,4]triazolo[1,5-a]pyridin-2-yl)-N-methylacetamide] | 31 nM | 1.3 nM
C[C@@H]1CN(CC(=O)N2CC(C)(C)c3c2cc(Cc2ccc(F)cc2)c2nc(NC=O)nn32)[C@@H](CN2CCOC[C@H]2C)CN1 [Compound 239, N-(4-(4-fluorobenzyl)-8,8-dimethyl-6-(2-((2R,5R)-5-methyl-2-(((R)-3-methylmorpholino)methyl)piperazin-1-yl)acetyl)-7,8-dihydro-6H-pyrrolo[2,3-e][1,2,4]triazolo[1,5-a]pyridin-2-yl)formamide] | 14 nM | 0.5 nM
C[C@@H]1CN(CC(=O)N2CC(C)(C)c3c2cc(Cc2ccc(F)cc2)c2nn(CC4(O)CC4)c(=O)n32)[C@@H](CN2CCOC[C@H]2C)CN1 [Compound 240, 4-(4-fluorobenzyl)-2-((1-hydroxycyclopropyl)methyl)-8,8-dimethyl-6-(2-((2R,5R)-5-methyl-2-(((R)-3-methylmorpholino)methyl)piperazin-1-yl)acetyl)-2,6,7,8-tetrahydro-1H-pyrrolo[2,3-e][1,2,4]triazolo[4,3-a]pyridin-1-one] | 25 nM | 5.9 nM
C[C@@H]1CN(CC(=O)N2CC(C)(C)c3c2cc(Cc2ccc(F)cc2)c2nc(N(C)C=O)nn32)[C@@H](CN2CCOC[C@H]2C)CN1 [Compound 241, N-(4-(4-fluorobenzyl)-8,8-dimethyl-6-(2-((2R,5R)-5-methy 1-2-(((R)-3-methylmorpholino)methyl)piperazin-1-yl)acetyl)-7,8-dihydro-6H-pyrrolo[2,3-e][1,2,4]triazolo[1,5-a]pyridin-2-yl)-N-methylformamide] | 15 nM | 6.3 nM
C[C@@H]1CN(CC(=O)N2CC(C)(C)c3c2cc(Cc2ccc(F)cc2)c2nn(CC(F)(F)CO)c(=O)n32)[C@@H](CN2CCOC[C@H]2C)CN1 [Compound 242, 2-(2,2-difluoro-3-hydroxypropyl)-4-(4-fluorobenzyl)-8,8-dimethyl-6-(2-((2R,5R)-5-methyl-2-(((R)-3-methylmorpholino)methyl)piperazin-1-yl)acetyl)-2,6,7,8-tetrahydro-1H-pyrrolo[2,3-e][1,2,4]triazolo[4,3-a]pyridin-1-one] | 18 nM | 2.7 nM
C[C@@H]1CN(CC(=O)N2CC(C)(C)c3c2cc(Cc2ccc(F)cc2)c2nn(CCN(C)C)c(=O)n32)[C@@H](CN2CCOC[C@H]2C)CN1 [Compound 243, 2-(2-(dimethylamino)ethyl)-4-(4-fluorobenzyl)-8,8-dimethyl-6-(2-((2R,5R)-5-methyl-2-(((R)-3-methylmorpholino)methyl)piperazin-1-yl)acetyl)-2,6,7,8-tetrahydro-1H-pyrrolo[2,3-e][1,2,4]triazolo[4,3-a]pyridin-1-one] | 95 nM | 14.5 nM
C[C@@H]1CN(CC(=O)N2CC(C)(C)c3c2cc(Cc2ccc(F)cc2)c2nc(C4(O)CC4)nn32)[C@@H](CN2CCOC[C@H]2C)CN1 [Compound 244, 1-(4-(4-fluorobenzyl)-2-(1-hydroxycyclopropyl)-8,8-dimethyl-7,8-dihydro-6H-pyrrolo[2,3-e][1,2,4]triazolo[1,5-a]pyridin-6-yl)-2-((2R,5R)-5-methyl-2-(((R)-3-methylmorpholino)methyl)piperazin-1-yl)ethan-1-one] | 3 nM | 4.6 nM
C[C@@H]1CN(CC(=O)N2CC(C)(C)c3c2cc(Cc2ccc(F)cc2)c2nn(Cc4cccnc4)c(=O)n32)[C@@H](CN2CCOC[C@H]2C)CN1 [Compound 245, 4-(4-fluorobenzyl)-8,8-dimethyl-6-(2-((2R,5R)-5-methyl-2-(((R)-3-methylmorpholino)methyl)piperazin-1-yl)acetyl)-2-(pyridin-3-ylmethyl)-2,6,7,8-tetrahydro-1H-pyrrolo[2,3-e][1,2,4]triazolo[4,3-a]pyridin-1-one] | 5 nM | 6.2 nM
C[C@@H]1CN(CC(=O)N2CC(C)(C)c3c2cc(Cc2ccc(F)cc2)c2nn(Cc4ccncn4)c(=O)n32)[C@@H](CN2CCOC[C@H]2C)CN1 [Compound 246, 4-(4-fluorobenzyl)-8,8-dimethyl-6-(2-((2R,5R)-5-methyl-2-(((R)-3-methylmorpholino)methyl)piperazin-1-yl)acetyl)-2-(pyrimidin-4-ylmethyl)-2,6,7,8-tetrahydro-1H-pyrrolo[2,3-e][1,2,4]triazolo[4,3-a]pyridin-1-one] | 4 nM | 3.5 nM
C[C@@H]1CN(CC(=O)N2CC(C)(C)c3c2cc(Cc2ccc(F)cc2)c2nc(-c4ccn[nH]4)nn32)[C@@H](CN2CCOC[C@H]2C)CN1 [Compound 247, 1-(4-(4-fluorobenzyl)-8,8-dimethyl-2-(1H-pyrazol-5-yl)-7,8-dihydro-6H-pyrrolo[2,3-e][1,2,4]triazolo[1,5-a]pyridin-6-yl)-2-((2R,5R)-5-methy 1-2-(((R)-3-methylmorpholino)methyl)piperazin-1-yl)ethan-1-one] | 4 nM | 6.2 nM
COCc1nc2c(Cc3ccc(F)cc3)cc3c(n2n1)C(C)(C)CN3C(=O)CN1C[C@@H](C)NC[C@@H]1CN1CCOC[C@H]1C [Compound 250, 1-(4-(4-fluorobenzyl)-2-(methoxymethyl)-8,8-dimethyl-7,8-dihydro-6H-pyrrolo[2,3-e][1,2,4]triazolo[1,5-a]pyridin-6-yl)-2-((2R,5R)-5-methy 1-2-(((R)-3-methylmorpholino)methyl)piperazin-1-yl)ethan-1-one] | 18 nM | 6.1 nM

Continued, in another order:

IC50 [1] | SMILES | IC50 [2]
130 nM | C[C@@H]1CN(CC(=O)N2CC(C)(C)c3c2cc(Cc2ccc(F)cc2)c2nc(C(=O)N(C)C)nn32)[C@@H](CN2CCOC[C@H]2C)CN1 [Compound 251, 4-(4-fluorobenzyl)-N,N,8,8-tetramethyl-6-(2-((2R,5R)-5-methyl-2-(((R)-3-methylmorpholino)methyl)piperazin-1-yl)acetyl)-7,8-dihydro-6H-pyrrolo[2,3-e][1,2,4]triazolo[1,5-a]pyridine-2-carboxamide] | 29.6 nM
32 nM | [2H]C([2H])([2H])n1nc2c(Cc3ccc(F)cc3)cc3c(n2c1=O)C(C)(C)CN3C(=O)CN1C[C@@H](C)NC[C@@H]1CN1CCOC[C@H]1C [Compound 252] | 5.3 nM
69 nM | C[C@@H]1CN(CC(=O)N2CC(C)(C)c3c2cc(Cc2ccc(F)cc2)c2nn(Cc4ccncc4)c(=O)n32)[C@@H](CN2CCOC[C@H]2C)CN1 [Compound 254, 4-(4-fluorobenzyl)-8,8-dimethyl-6-(2-((2R,5R)-5-methyl-2-(((R)-3-methylmorpholino)methyl)piperazin-1-yl)acetyl)-2-(pyridin-4-ylmethyl)-2,6,7,8-tetrahydro-1H-pyrrolo[2,3-e][1,2,4]triazolo[4,3-a]pyridin-1-one] | 3.8 nM
70 nM | CC(C)NC(=O)c1nc2c(Cc3ccc(F)cc3)cc3c(n2n1)C(C)(C)CN3C(=O)CN1C[C@@H](C)NC[C@@H]1CN1CCOC[C@H]1C [Compound 256, 4-(4-fluorobenzyl)-N-isopropyl-8,8-dimethyl-6-(2-((2R,5R)-5-methyl-2-(((R)-3-methylmorpholino)methyl)piperazin-1-yl)acetyl)-7,8-dihydro-6H-pyrrolo[2,3-e][1,2,4]triazolo[1,5-a]pyridine-2-carboxamide] | 8.9 nM
140 nM | C[C@@H]1CN(CC(=O)N2CC(C)(C)c3c2cc(Cc2ccc(F)cc2)c2nc(C(=O)NC4CC4)nn32)[C@@H](CN2CCOC[C@H]2C)CN1 [Compound 257, N-cyclopropyl-4-(4-fluorobenzyl)-8,8-dimethyl-6-(2-((2R,5R)-5-methyl-2-(((R)-3-methylmorpholino)methyl)piperazin-1-yl)acetyl)-7,8-dihydro-6H-pyrrolo[2,3-e][1,2,4]triazolo[1,5-a]pyridine-2-carboxamide] | 11.6 nM
87 nM | CCNC(=O)c1nc2c(Cc3ccc(F)cc3)cc3c(n2n1)C(C)(C)CN3C(=O)CN1C[C@@H](C)NC[C@@H]1CN1CCOC[C@H]1C [Compound 259, N-ethyl-4-(4-fluorobenzyl)-8,8-dimethyl-6-(2-((2R,5R)-5-methyl-2-(((R)-3-methylmorpholino)methyl)piperazin-1-yl)acetyl)-7,8-dihydro-6H-pyrrolo[2,3-e][1,2,4]triazolo[1,5-a]pyridine-2-carboxamide] | 15.8 nM
29 nM | C[C@@H]1CN(CC(=O)N2CC(C)(C)c3c2cc(Cc2ccc(F)cc2)c2nn(C(C)(C)CO)c(=O)n32)[C@@H](CN2CCOC[C@H]2C)CN1 [Compound 260, 4-(4-fluorobenzyl)-2-(1-hydroxy-2-methylpropan-2-yl)-8,8-dimethyl-6-(2-((2R,5R)-5-methyl-2-(((R)-3-methylmorpholino)methyl)piperazin-1-yl)acetyl)-2,6,7,8-tetrahydro-1H-pyrrolo[2,3-e][1,2,4]triazolo[4,3-a]pyridin-1-one] | 2.7 nM
